# According to patent US12590100B2, “Tetrahydro-spiroindoline-pyrrolopyrrole-triones inhibitors of the NRF2-β-TrCP interaction for use in the treatment of fatty liver disease” (Universidad Autonoma De Madrid, priority 2021, dated 2026):
# Entries after “also recorded” stand apart in the source; their conditions may differ.
# Experiments:
# SCF-βTrCP / NRF2 = SCF-βTrCP / NRF2 (Homo sapiens, UniProt Q9Y297); experiment: In vitro ubiquitination of phosphorylated NRF2 by the βTrCP complex; format: biochemical; conditions: for ubiquitination (polyubiquitination) of NRF2 by βTrCP: PHAR 3 μM, 1 hour at 25° C., western blot
# Chain of SCF-βTrCP / NRF2 (Q9Y297 whole entry, the tested form may be a part): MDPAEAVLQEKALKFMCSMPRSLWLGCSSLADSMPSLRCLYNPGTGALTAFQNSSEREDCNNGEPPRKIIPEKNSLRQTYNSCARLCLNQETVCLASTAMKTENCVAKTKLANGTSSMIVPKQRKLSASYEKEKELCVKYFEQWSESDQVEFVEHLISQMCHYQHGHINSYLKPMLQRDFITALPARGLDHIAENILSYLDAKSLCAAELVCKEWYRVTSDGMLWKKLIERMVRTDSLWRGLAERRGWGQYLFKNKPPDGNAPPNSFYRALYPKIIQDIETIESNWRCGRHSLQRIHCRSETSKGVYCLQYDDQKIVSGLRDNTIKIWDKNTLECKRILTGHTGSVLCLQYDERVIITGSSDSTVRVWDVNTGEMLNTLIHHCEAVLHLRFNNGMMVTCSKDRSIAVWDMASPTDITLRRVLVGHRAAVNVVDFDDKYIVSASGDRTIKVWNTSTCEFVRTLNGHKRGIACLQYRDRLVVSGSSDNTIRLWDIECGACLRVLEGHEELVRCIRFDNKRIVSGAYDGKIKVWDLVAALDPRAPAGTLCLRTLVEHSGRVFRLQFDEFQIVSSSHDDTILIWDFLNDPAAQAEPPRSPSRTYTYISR
# Chain of SCF-βTrCP / NRF2 (P63208 whole entry partner, the tested form may be a part): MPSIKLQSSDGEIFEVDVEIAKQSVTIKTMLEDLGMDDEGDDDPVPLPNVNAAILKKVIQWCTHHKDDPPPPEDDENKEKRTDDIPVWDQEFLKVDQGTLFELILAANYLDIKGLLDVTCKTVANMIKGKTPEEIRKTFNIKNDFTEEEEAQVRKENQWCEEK
# Chain of SCF-βTrCP / NRF2 (Q13616 whole entry partner, the tested form may be a part): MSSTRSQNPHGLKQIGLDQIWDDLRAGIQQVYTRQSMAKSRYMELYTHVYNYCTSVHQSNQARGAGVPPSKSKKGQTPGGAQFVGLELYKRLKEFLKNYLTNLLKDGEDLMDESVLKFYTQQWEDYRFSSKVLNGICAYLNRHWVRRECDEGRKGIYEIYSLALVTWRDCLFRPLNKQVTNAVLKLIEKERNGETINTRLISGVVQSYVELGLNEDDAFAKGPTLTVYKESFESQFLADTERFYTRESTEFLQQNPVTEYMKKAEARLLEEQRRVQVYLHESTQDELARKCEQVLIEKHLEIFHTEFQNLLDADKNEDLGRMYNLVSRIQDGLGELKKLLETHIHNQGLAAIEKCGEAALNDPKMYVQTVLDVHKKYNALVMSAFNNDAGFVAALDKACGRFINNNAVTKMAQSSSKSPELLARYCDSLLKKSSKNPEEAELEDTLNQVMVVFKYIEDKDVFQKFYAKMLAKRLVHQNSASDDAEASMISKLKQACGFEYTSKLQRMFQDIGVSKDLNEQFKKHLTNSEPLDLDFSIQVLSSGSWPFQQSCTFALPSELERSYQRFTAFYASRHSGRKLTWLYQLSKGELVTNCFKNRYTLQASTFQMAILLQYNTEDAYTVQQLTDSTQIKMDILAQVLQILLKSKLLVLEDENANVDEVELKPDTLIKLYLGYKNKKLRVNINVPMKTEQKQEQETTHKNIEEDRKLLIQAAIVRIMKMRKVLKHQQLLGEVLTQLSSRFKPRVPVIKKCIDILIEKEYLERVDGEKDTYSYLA
# Chain of SCF-βTrCP / NRF2 (P62877 whole entry partner, the tested form may be a part): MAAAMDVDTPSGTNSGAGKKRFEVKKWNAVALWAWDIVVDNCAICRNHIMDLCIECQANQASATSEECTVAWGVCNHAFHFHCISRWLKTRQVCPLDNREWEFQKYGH
# Description: In vitro kinase assay and in vitro ubiquitination. For the recognition and degradation of NRF2 by βTrCP, the serines 335, 338, 342 and 347 located at the Neh6 domain of NRF2 need to be previously phosphorylated by the kinase GSK-3β (FIG. 1). Therefore, to obtain the phosphorylated substrate, 20 ng recombinant NRF2-DETGE was used together with 0.5 μg of recombinant GSK-3β incubated at 30° C. for 60 min. The result was analyzed by western blot. After confirming the existence of phosphorylation in the residues of interest, an in vitro ubiquitination assay was carried out using the recombinant proteins that make up the E3 ubiquitin ligase complex. The ubiquitination reaction was carried out using: ATP (2 mM), […], SCF-βTrCP (450 nM), and non-phosphorylated or phosphorylated NRF2 (20 ng), in a specific ubiquitination buffer (30 mM Tris pH 7.6, 5 mM MgCl2, 2 mM dithiothreitol, 100 mM NaCl). Before the ubiquitination reactions, the E1, Cdc34b, and ubiquitin components were incubated together for 2 min to allow the E2 thioester bond to form. The reactions were incubated for 1 hour at 25° C. in the presence or absence of PHAR (3 μM) in order to determine whether or not PHAR inhibits ubiquitination by βTrCP. […] The PI3K/AKT signaling pathway is inhibited, and therefore GSK-3β is activated with the PI3K inhibitor, LY294002. As a result, NRF2 is phosphorylated by GSK-3β and marked for degradation by means of interaction with β-TrCP. Therefore, if PHAR is capable of inhibiting βTrCP-NRF2 interaction, the NRF2 levels will remain stable independently of the activation and phosphorylation by GSK-3β. […]
# FIG. 6. […] Phosphorylation at residues 335, 338, 342 and 347 was analyzed by western blot. […] Polyubiquitinated NRF2 was detected by western blot with anti-ubiquitin antibody. […] E), densitometric analysis of NRF2 protein levels of the representative immunoblot of (D), expressed as a ratio of NRF2/GAPDH. […] G), densitometric analysis of NRF2 and HO1 protein levels of the representative immunoblots of (F), expressed as a ratio of NRF2 and HO1/GAPDH. […]
# cell viability = experiment: MTT assay of cell viability/toxicity; format: cell-based; conditions: all doses used
# β-TrCP1 and β-TrCP2 = experiment: NRF2/HO-1 induction after lentiviral silencing of β-TrCP1/2 in Keap1−/− MEFs; format: cell-based, mouse
# Description: In vitro kinase assay and in vitro ubiquitination. For the recognition and degradation of NRF2 by βTrCP, the serines 335, 338, 342 and 347 located at the Neh6 domain of NRF2 need to be previously phosphorylated by the kinase GSK-3β (FIG. 1). Therefore, to obtain the phosphorylated substrate, 20 ng recombinant NRF2-DETGE was used together with 0.5 μg of recombinant GSK-3β incubated at 30° C. for 60 min. The result was analyzed by western blot. After confirming the existence of phosphorylation in the residues of interest, an in vitro ubiquitination assay was carried out using the recombinant proteins that make up the E3 ubiquitin ligase complex. The ubiquitination reaction was carried out using: ATP (2 mM), […], SCF-βTrCP (450 nM), and non-phosphorylated or phosphorylated NRF2 (20 ng), in a specific ubiquitination buffer (30 mM Tris pH 7.6, 5 mM MgCl2, 2 mM dithiothreitol, 100 mM NaCl). Before the ubiquitination reactions, the E1, Cdc34b, and ubiquitin components were incubated together for 2 min to allow the E2 thioester bond to form. The reactions were incubated for 1 hour at 25° C. in the presence or absence of PHAR (3 μM) in order to determine whether or not PHAR inhibits ubiquitination by βTrCP. […] The PI3K/AKT signaling pathway is inhibited, and therefore GSK-3β is activated with the PI3K inhibitor, LY294002. As a result, NRF2 is phosphorylated by GSK-3β and marked for degradation by means of interaction with β-TrCP. Therefore, if PHAR is capable of inhibiting βTrCP-NRF2 interaction, the NRF2 levels will remain stable independently of the activation and phosphorylation by GSK-3β. The obtained result corroborates this. • 3. Using lentiviral silencing of the two isoforms described for β-TrCP (β-TrCP1 and β-TrCP2) in MEFs originating from Keap1 knockout mice (Keap′1−/−).
# FIG. 6. PHAR increases NRF2 protein levels in a β-TrCP-dependent manner. A) In vitro phosphorylation of recombinant NRF2-DETGE by recombinant GSK-3β. Phosphorylation at residues 335, 338, 342 and 347 was analyzed by western blot. B) In vitro ubiquitination of NRF2 or pNRF2 by the βTrCP complex. NRF2 and pNRF2 (20 ng) were incubated at 25° C. for 1 h with purified ubiquitin, E1/cdc34b, βTrCP/Skp1 and Cull/Rbx1 as indicated in the presence or absence of PHAR […] or vehicle (DMSO). Polyubiquitinated NRF2 was detected by western blot with anti-ubiquitin antibody. […] E), densitometric analysis of NRF2 protein levels of the representative immunoblot of (D), expressed as a ratio of NRF2/GAPDH. […] G), densitometric analysis of NRF2 and HO1 protein levels of the representative immunoblots of (F), expressed as a ratio of NRF2 and HO1/GAPDH. […]
smiles,measurement,setting,value
O=C1[C@@H]2[C@H](Cc3c[nH]c4ccccc34)N[C@]3(C(=O)Nc4ccc(Cl)cc43)[C@@H]2C(=O)N1c1ccc2c(c1)OCCO2 [PHAR],ubiquitination (polyubiquitination) of NRF2 by βTrCP,SCF-βTrCP / NRF2,prevents the ubiquitination of NRF2
same,ubiquitination (polyubiquitination) of NRF2 by βTrCP,SCF-βTrCP / NRF2; listed as PH,polyubiquitination was considerably lower
same,concentration from which substrate polyubiquitination starts to be reduced,SCF-βTrCP / NRF2; dose curve 3-3000 nM,100 nM
same,"toxicity (cell viability, MTT)",cell viability,does not present toxicity at any of the doses used
same,HO-1 accumulation in sh β-TrCP1/2 cells compared with shCTRL,β-TrCP1 and β-TrCP2; PHAR 10 μM,considerably lower; also recorded: lower in cells lacking β-TrCP1/2
same,Hmox1 and Nqo1 mRNA induction in sh β-TrCP1/2 cells,β-TrCP1 and β-TrCP2; PHAR 10 μM,induction generated by PHAR is lost
same,NRF2 levels in shCTRL cells,"β-TrCP1 and β-TrCP2; PHAR 10 μM, 2, 4, 8 h",increase in NRF2 levels from 2 h to 8 h
same,NRF2 accumulation in sh β-TrCP1/2 cells compared with shCTRL,"β-TrCP1 and β-TrCP2; silencing about 50%, PHAR 10 μM",considerably lower; also recorded: significantly lower compared with shCTRL cells
